The record followed here is ChEMBL document CHEMBL1140392, “Cyclohexenyl- and dehydropiperidinyl-alkynyl pyridines as potent metabotropic glutamate subtype 5 (mGlu5) receptor antagonists” (Bioorg Med Chem Lett, 2005).

Holding throughout (type): ADME, organism-based
The nature of data set [1]: Clearance upon i.v. administration at the dose of 2 mg/kg in rat. Also on record: dose 2 mg/kg, route intravenous. The settings on record: in vivo, iv.
The nature of data set [2]: Volume distribution upon i.v. administration at the dose of 2 mg/kg in rat. Also on record: dose 2 mg/kg, route intravenous. The settings on record: in vivo, iv.
Data set [3] can be described thus: Half life upon i.v. administration at the dose of 2 mg/kg in rat. Also on record: dose 2 mg/kg, route intravenous. The note with it: in vivo, iv.
Data set [4] can be described thus: Peak plasma concentration in rats when administered 10 mg/kg orally. The arrangement: dose 10 mg/kg, route oral. The settings on record: rat, po.
The nature of data set [5]: Bioavailability in rats when administered 10 mg/kg orally. The settings on record: rat, in vivo, po, read-out: Bioavailabiility.

Each structure is given as a SMILES string.

Take `Clc1cncc(OC2C=C(C#Cc3ccccn3)CCC2)c1` (stereo not drawn): the clearance in data set [1] turned out to be 1.92 L/h/kg. For the same compound, the Vd in data set [2] (read-out: Vd) was found to be 7.2 L/kg. The same compound gave a half-life in data set [3] of 4.8 h.
`Cc1ccc(S(=O)(=O)N2CC=C(C#Cc3ccccn3)CC2)cc1` came in with a Cl in data set [1] of 1.74 L/h/kg. In addition, the Vd in data set [2] was found to be 14.7 L/kg. The compound further returned a T1/2 in data set [3] of 1.5 h.
In the case of `C(#Cc1ccccn1)C1=CC(Oc2ccncc2)CCC1` (stereo not drawn), the clearance in data set [1] is 2.46 L/h/kg. For the same compound, the Vd in data set [2] (read-out: Vd) is 1.2 L/kg. The compound further showed a half-life in data set [3] of 0.8 h.
In data set [1], `C(#Cc1ccccn1)C1=CCCCC1` returned a clearance of 2.7 L/h/kg. Moreover, the Vd in data set [2] (read-out: Vd) turned out to be 9.1 L/kg. In data set [3], this compound gave a half-life of 3.9 h.
In the same order, the values of `C(#Cc1ccccn1)C1=CC(Oc2cccnc2)CCC1` (stereo not drawn) are 5.64 L/h/kg, 2.2 L/kg and 0.3 h.
The matching figures for `C(#Cc1ccccn1)C1=CCC(Nc2cccnc2)CC1` (stereo not drawn): 2.04 L/h/kg, 1.4 L/kg and 0.5 h.
As to `O=S(=O)(c1ccc(Br)cc1)N1CC=C(C#Cc2ccccn2)CC1`, the clearance in data set [1] stood at 3.84 L/h/kg. Besides, in data set [4], the concentration peaked (Cmax) at 0.02 µM. Besides, in data set [2] (read-out: Vd), the volume of distribution (Vd) stood at 3.98 L/kg. The half-life in data set [3] is 1.1 h. Further, in data set [5], the bioavailability stood at 10%.
